Results as given in patent US7183267B2, “β-lactamase inhibitors and methods of use thereof” (priority 2003, dated 2007).
Converted amounts (≈) assume the structure as drawn.

Assays:
Format in all cases: cell-based
[1] = test system: methicillin resistant S. aureus ATCC 33591 (MRSA-ATCC); assay: MIC assay, broth microdilution, MRSA-ATCC; details: Staphylococcus aureus, 24 h
Experimental: (1) methicillin resistant S. aureus ATCC 33591 (MRSA-ATCC). This strain was obtained from American Type Culture Collection (ATCC), Manassas, Md.;
(§1) The strains were processed according to procedures recommended by ATCC, or procedures that are routinely used. Single colonies of each organism were picked for purification to generate pure working cultures. Prior to each experiment each strain was subcultured on a fresh Mueller-Hinton agar plate (MHA).
(§2) Inocula for the MIC assays were prepared by transferring a tiny portion of one colony from a MHA plate to 2 ml of Mueller-Hinton broth (MHB) such that the estimated cell density was about 10^7 colony forming unit (CFU)/ml. This cell suspension was then further diluted 10-fold (to 10^6 CFU/ml) by transferring the 2 ml cell suspension to 18 ml of MHB. Addition of 50 μl of this dilute cell suspension to 50 μl of growth medium yielded the desired cell density, namely about 5×10^4 CFU/well, or 5×10^5 CFU/ml.
(§3) The MIC value of oxacillin was determined using the broth microdilution procedure recommended by the National Committee of Clinical Laboratory Standards (NCCLS, 2000).
(§4) The MIC experiments were performed in duplicate in 96-well microtiter plates using MHB. A stock solution of 2.6 mg/0.5 ml was prepared in dimethylsulfoxide (DMSO). A total of 8 two-fold serial dilutions were made with DMSO. Initial oxacillin doses used were (μg/ml): 64, 32, 16, 8, 4, 2, 1, and 0.5. Doses were adjusted in the confirmatory experiment, if needed, in order to establish an actual MIC value.
(§5) To each well of a 96 well microtiter plate was added 47.5 μl of MHB. A volume of 2.5 μl of each dilution of oxacillin was then transferred to appropriate wells containing the medium. All wells, except the sterility control wells, were then inoculated with 50 μl of a diluted cell suspension to give a final volume of 100 μl and a final cell density of 5×10^4 CFU/well. The volume in the sterility control wells was adjusted to 100 μl with MHB. A sterile pipette tip was used to mix the contents of each well (one tip was used going from the low to the high concentration in the same column). The microtiter plates were covered with the lids and were placed in large Stratagene Big Blue plates (Cat. # 400041). Four large kimwipes moistened with tap water were placed near the edges of the Stratagene plates to prevent evaporation of the medium. The microtiter plates were incubated for at least 24 hours at 35° C. The plates were then evaluated for growth in each well. Controls included: medium sterility and negative control (medium and bacteria only).
(§6) The procedure used to determine the antimicrobial activity of the compounds of the present invention was identical to the broth microdilution procedure described above with the exception of the preparation of the stock solutions. Stock solution at concentration of 40.96 mg/0.5 ml was prepared in DMSO for each of the compounds. A total of 8 two-fold dilutions were then made in DMSO. A volume of 2.5 μl of each dilution was delivered to appropriate wells. The initial doses used were (μg/ml): 512, 256, 128, 64, 32, 16, 8, and 4.
(§7) A numerical code was used to evaluate the extent of growth as indicated below. • 0: absence of growth • 1: barely visible (faint) growth • 2: fair growth but less than the negative solvent control • 3: growth is equivalent to the negative solvent control.
(§8) The lowest dose at which no visible growth is observed was determined to be the MIC value.
(§9) MIC assays were performed with oxacillin and the four compounds. Each of the compounds was tested at the following 8 doses (μg/ml): 512, 256, 128, 64, 32, 16, 8, and 4. Oxacillin was tested at the following 8 doses (μg/ml): 64, 32, 16, 8, 4, 2, 1, and 0.5.

[2] = test system: methicillin resistant S. aureus from Stanford University Hospital (MRSA-SU); assay: MIC assay, broth microdilution, MRSA-SU; details: Staphylococcus aureus, MRSA, 24 h
Source text: (2) methicillin resistant S. aureus from Stanford University Hospital Clinical Microbiology/Virology Laboratory (MRSA-SU). […] Such Staphylococci are also resistant to all penicillins, and all cephalosporins, in addition to all β-lactamase inhibitor combinations (including ampicillin/sulbactarn, amoxicillin/clavulanic acid, piperacillin/tazobactam), imipenem, and meropenem; and
as §1, §2, §3, §4, §5, §6, §7, §8, §9

[3] = test system: methicillin resistant S. aureus from Stanford University Hospital (MRSA-SU); assay: Matrix system: oxacillin plus β-lactamase inhibitor, MRSA-SU
Experimental: as §5, §7, §8
The effect of the four compounds of the present invention on oxacillin resistance of the MRSA strains was determined using a matrix system. The β-lactamase inhibitors were tested at 5 doses against up to eleven concentrations of oxacillin. […] A 96-well microtiter plate was used for the matrix system. The procedure was identical to that described above for the MIC determination, with the exception that both oxacillin and one each of the β-lactamase inhibitors was added, 2.5 μl each, to the wells prior to addition of the test organisms.
Matrix Study:Oxacillin and Compound FL201 with MRSA-SU
Matrix Study: Oxacillin and Compound FL202 with MRSA-SU

COC(=O)c1cc(B(O)O)cc([N+](=O)[O-])c1 [Compound F1202]
MIC [1]: 16 µg/mL (≈ 71.1 µM)
MIC [2]: 256 µg/mL
MIC (oxacillin) ([3]; Table 18, in presence of F1202 16 μg/ml): 64 µg/mL
MIC (oxacillin) ([3]; Table 18, in presence of F1202 32 μg/ml): 4 µg/mL
MIC (oxacillin) ([3]; Table 18, in presence of F1202 64 μg/ml): 1 µg/mL
MIC (oxacillin) ([3]; Table 18, in presence of F1202 128 μg/ml): 0.25 µg/mL
growth score ([3]; Table 18, oxacillin 0, F1202 16 μg/ml): 3
growth score ([3]; Table 18, oxacillin 0, F1202 32 μg/ml): 3
growth score ([3]; Table 18, oxacillin 0, F1202 64 μg/ml): 3
growth score ([3]; Table 18, oxacillin 0, F1202 128 μg/ml): 1
growth score ([3]; Table 18, oxacillin 0, F1202 256 μg/ml): 0
growth score ([3]; Table 18, oxacillin 0.064 μg/ml + F1202 16 μg/ml): 1
growth score ([3]; Table 18, oxacillin 0.064 μg/ml + F1202 32 μg/ml): 1
growth score ([3]; Table 18, oxacillin 0.064 μg/ml + F1202 64 μg/ml): 1
growth score ([3]; Table 18, oxacillin 0.064 μg/ml + F1202 128 μg/ml): 1
growth score ([3]; Table 18, oxacillin 0.064 μg/ml + F1202 256 μg/ml): 0
growth score ([3]; Table 18, oxacillin 0.125 μg/ml + F1202 16 μg/ml): 1
growth score ([3]; Table 18, oxacillin 0.125 μg/ml + F1202 32 μg/ml): 1
growth score ([3]; Table 18, oxacillin 0.125 μg/ml + F1202 64 μg/ml): 1
growth score ([3]; Table 18, oxacillin 0.125 μg/ml + F1202 128 μg/ml): 1
growth score ([3]; Table 18, oxacillin 0.125 μg/ml + F1202 256 μg/ml): 0
growth score ([3]; Table 18, oxacillin 0.25 μg/ml + F1202 16 μg/ml): 1
growth score ([3]; Table 18, oxacillin 0.25 μg/ml + F1202 32 μg/ml): 1
growth score ([3]; Table 18, oxacillin 0.25 μg/ml + F1202 64 μg/ml): 1
growth score ([3]; Table 18, oxacillin 0.25 μg/ml + F1202 128 μg/ml): 0
growth score ([3]; Table 18, oxacillin 0.25 μg/ml + F1202 256 μg/ml): 0
growth score ([3]; Table 18, oxacillin 0.5 μg/ml + F1202 16 μg/ml): 1
growth score ([3]; Table 18, oxacillin 0.5 μg/ml + F1202 32 μg/ml): 1
growth score ([3]; Table 18, oxacillin 0.5 μg/ml + F1202 64 μg/ml): 1
growth score ([3]; Table 18, oxacillin 0.5 μg/ml + F1202 128 μg/ml): 0
growth score ([3]; Table 18, oxacillin 0.5 μg/ml + F1202 256 μg/ml): 0
growth score ([3]; Table 18, oxacillin 1 μg/ml + F1202 16 μg/ml): 1
growth score ([3]; Table 18, oxacillin 1 μg/ml + F1202 32 μg/ml): 1
growth score ([3]; Table 18, oxacillin 1 μg/ml + F1202 64 μg/ml): 0
growth score ([3]; Table 18, oxacillin 1 μg/ml + F1202 128 μg/ml): 0
growth score ([3]; Table 18, oxacillin 1 μg/ml + F1202 256 μg/ml): 0
growth score ([3]; Table 18, oxacillin 2 μg/ml + F1202 16 μg/ml): 1
growth score ([3]; Table 18, oxacillin 2 μg/ml + F1202 32 μg/ml): 1
growth score ([3]; Table 18, oxacillin 2 μg/ml + F1202 64 μg/ml): 0
growth score ([3]; Table 18, oxacillin 2 μg/ml + F1202 128 μg/ml): 0
growth score ([3]; Table 18, oxacillin 2 μg/ml + F1202 256 μg/ml): 0
growth score ([3]; Table 18, oxacillin 4 μg/ml + F1202 16 μg/ml): 1
growth score ([3]; Table 18, oxacillin 4 μg/ml + F1202 32 μg/ml): 0
growth score ([3]; Table 18, oxacillin 4 μg/ml + F1202 64 μg/ml): 0
growth score ([3]; Table 18, oxacillin 4 μg/ml + F1202 128 μg/ml): 0
growth score ([3]; Table 18, oxacillin 4 μg/ml + F1202 256 μg/ml): 0
growth score ([3]; Table 18, oxacillin 16 μg/ml + F1202 16 μg/ml): 1
growth score ([3]; Table 18, oxacillin 16 μg/ml + F1202 32 μg/ml): 0
growth score ([3]; Table 18, oxacillin 16 μg/ml + F1202 64 μg/ml): 0
growth score ([3]; Table 18, oxacillin 16 μg/ml + F1202 128 μg/ml): 0
growth score ([3]; Table 18, oxacillin 16 μg/ml + F1202 256 μg/ml): 0
growth score ([3]; Table 18, oxacillin 64 μg/ml + F1202 16 μg/ml): 0
growth score ([3]; Table 18, oxacillin 64 μg/ml + F1202 32 μg/ml): 0
growth score ([3]; Table 18, oxacillin 64 μg/ml + F1202 64 μg/ml): 0
growth score ([3]; Table 18, oxacillin 64 μg/ml + F1202 128 μg/ml): 0
growth score ([3]; Table 18, oxacillin 64 μg/ml + F1202 256 μg/ml): 0
growth score ([3]; Table 18, oxacillin 128 μg/ml + F1202 16 μg/ml): 0
growth score ([3]; Table 18, oxacillin 128 μg/ml + F1202 32 μg/ml): 0
growth score ([3]; Table 18, oxacillin 128 μg/ml + F1202 64 μg/ml): 0
growth score ([3]; Table 18, oxacillin 128 μg/ml + F1202 128 μg/ml): 0
growth score ([3]; Table 18, oxacillin 128 μg/ml + F1202 256 μg/ml): 0
growth score ([3]; Table 18, oxacillin 256 μg/ml + F1202 16 μg/ml): 0
growth score ([3]; Table 18, oxacillin 256 μg/ml + F1202 32 μg/ml): 0
growth score ([3]; Table 18, oxacillin 256 μg/ml + F1202 64 μg/ml): 0
growth score ([3]; Table 18, oxacillin 256 μg/ml + F1202 128 μg/ml): 0
growth score ([3]; Table 18, oxacillin 256 μg/ml + F1202 256 μg/ml): 0
